Earlier results, collected in patent US20120141611A1, “METHODS AND COMPOSITIONS USING ERGOTHIONEINE TO TREAT A VARIETY OF HEALTH RELATED FACTORS” (Oxis International Inc., priority 2010, published 2012).

Columns and labels:
[1] = single elderly person, stable seven years later; cited from earlier work
[2] = 537 osteoarthritis patients, after 27 weeks; cited from earlier work
intestinal polyps = conditions: mouse, in vivo; cited from earlier work
[3] = people taking vitamin C supplements, 1,032 subjects; cited from earlier work

Compound: Cyanocobalamin [vitamin B12]
- Dementia outcome [1]: their dementia disappeared

Compound: hyaluronic acid
- Joint pain [2]: significantly reduce joint pain while resting and while walking

Compound: COc1cc(/C=C/C(=O)CC(=O)/C=C/c2ccc(O)c(OC)c2)ccc1O [curcumin]
- Reduction of intestinal polyps (intestinal polyps): 75%

Compound: O=C1O[C@H]([C@@H](O)CO)C(O)=C1O [vitamin C]
- Reduced likelihood of developing osteoarthritis in the knee [3]: 11%
